In article PMC9108036 (Biomedicine & Pharmacotherapy, 2022):

Tested on: lentiviral pseudovirus with SARS-CoV-2 spike D614G
Assay type: cell-based

`CCCCC[C@H](O)/C=C/[C@H]1[C@H](O)CC(=O)[C@@H]1CCCCCCC(=O)O` [Alprostadil] gave an IC50 of 7.42 µM.

For `CN(C)C(=O)COC(=O)Cc1ccc(OC(=O)c2ccc(NC(=N)N)cc2)cc1` [Camostat], the “inhibition of virus entry (in words)” value was “failed to inhibit virus entry sufficiently” and the “maximum response (inhibition)” value was 50%.

Compound `CN(C)CCCN1c2ccccc2Sc2ccc(Cl)cc21` [Chlorpromazine] has an IC50 of 9.63 µM.

In the case of `Nc1nc(Cl)nc2c1ncn2[C@H]1C[C@H](O)[C@@H](CO)O1` [Cladribine], the IC50 is reported as 7.74 µM.

For `CC(=O)O[C@@]12CO[C@@H]1C[C@H](O)[C@@]1(C)C(=O)[C@H](O)C3=C(C)[C@@H](OC(=O)[C@H](O)[C@@H](NC(=O)OC(C)(C)C)c4ccccc4)C[C@@](O)([C@@H](OC(=O)c4ccccc4)[C@H]21)C3(C)C` [Docetaxel], the IC50 was less than 0.08 µM.

Compound `O=c1[nH]cc(F)c(=O)[nH]1` [Fluorouracil] has an IC50 of 7.01 µM.

With `N=C(N)c1ccc2cc(OC(=O)c3ccc(N=C(N)N)cc3)ccc2c1` [Nafamostat] the “maximum response (inhibition)” value was 50%.
